The values that follow come from US7928128B2, “Use of(R)-(−) -2-[5-(4-fluorophenyl)-3-pyridylmethylaminomethyl]-chromane and its physiologically acceptable salts” (Merck Patent Gesellschaft mit beschrankter Haftung, priority 2000, dated 2011).

Test [1] relates to Parkinson patients. The note with it: literature reports; cited from earlier work.
Test [2] concerns patients with advanced idiopathic Parkinson's disease complicated by "peak-dose" dyskinesia. The test is described as follows: Double-blind cross-over study, advanced idiopathic Parkinson's disease with peak-dose dyskinesia. It counts as in vivo, human. The note with it: add on, 2.5 to 10 mg b.i.d., versus placebo; first hour in the on state. From the text:
A typical study to investigate the efficacy of the compounds according to the invention for adverse effects in Parkinson's disease is described in the following. 40 patients of either sex with advanced idiopathic Parkinson's disease complicated by “peak-dose” dyskinesia participate in a double-blind, cross-over study. The main inclusion criteria are Hoehn & Yahr stage ≧2.5 (lit.: Hoehn H. M. et al, Neurology 1967; 17: 427-442), aged 40-75 years, symptom duration of at least 5 years, and a I-dopa treatment duration of at least 3 years. […] The dose of blinded medication is titrated over a period of 3 weeks in a range from 2.5 to 10 mg b.i.d. Then the medication is kept constant for 1 week. Before the start of titration and at the end of the treatment period a I-dopa challenge is performed according to […] et al. (Movement Disord, 1999, 14 (Suppl. 1), 54-59) using video recording. The main outcome measure of the protocol is the mean score for dyskinesia during the first hour in the “on” state after I-dopa challenge. Therefore, the investigator assesses every minute the severity of dyskinesia (0=absent, 4=severe disabling involuntary movements) from 0 to 4 in seven parts of the body (upper and lower limbs, face, trunk, neck). After a 2-week wash-out period the two study arms are crossed over and the protocol is repeated.

Test [3] relates to patients with idiopathic Parkinson's disease. The test is described as follows: Double-blind study in idiopathic Parkinson's disease (UPDRS). The note with it: add on, 2.5 to 10 mg b.i.d., versus placebo. The test is classed as in vivo, human. From the text: A typical study to investigate the efficacy of the compounds according to the invention in the treatment of idiopathic Parkinson's disease is described in the following. 180 patients of either sex with idiopathic Parkinson's disease participate in a double-blind study. The main inclusion criteria are Hoehn & Yahr stage ≧2.0 (Hoehn H. M. et al, Neurology 1967; 17: 427-442), aged 50-80 years, symptom duration of at least 5 years. […] The dose of blinded medication is titrated over a period of 4 weeks in a range from 2.5 to 10 mg b.i.d. Then the medication is kept constant for 1 week. Before the start of titration, at the end of the treatment period and 2 weeks after the end of the tiration period an assessment is performed in each patients using the unified Parkinson's disease rating scale (UPDRS part I to V according to S. Fahn et al., in: Recent developments in Parkinson's disease, vol. 2, MacMillan health information 1987, 153-163). […] Furthermore, the efficacy to treat tremor is shown by the means of the UPDRS.

Test [4] concerns MSA patients. The test is described as follows: Study in MSA patients (UPDRS). It counts as in vivo, human. The conditions noted are these: add on, 2.5 to 20 mg b.i.d., versus placebo, cross-over. The procedure:
A typical study to investigate the efficacy of the compounds according to the invention in MSA patients encompasses 30 patients of either sex with a symptom duration of at least 5 years and a significant reduction of central dopamine receptors in positron emission tomography (PET) scan. The study design is similar to that described above for Parkinson's disease. […] Before the start of titration and at the end of the treatment period a complete UPDRS assessment is performed in each patient (primary outcome measure). After a 2-week wash-out period the two study arms are crossed over and the protocol is repeated.

In test [5] the test system is patients with Huntington's disease. The test is described as follows: Trial in patients with Huntington's disease. It counts as in vivo, human. The conditions noted are these: add on, 2.5 to 20 mg b.i.d., versus placebo. The procedure:
A typical trial to establish the effect of the compounds according to the invention on chorea, voluntary motor performance, and functional disability in patients with Huntington's disease encompasses 32 genetically diagnosed patients. […] The dose of blinded medication is titrated over a period of 3 weeks in a range from 2.5 to 20 mg b.i.d. Then the medication is held constant for 1 week. Assessments are performed in the week before and at the last day of the trial. Chorea is scored using the abnormal involuntary movement scale (AIMS, W. Guy, in: ECDEU assessment manual. Rockville Md.: US dept. of health, education and welfare, 1976: 534-537), the unified Huntington's disease rating scale (UHDRS, Huntington study group, 1996, Movement Disord, 11: 136-42), and judgement of video recordings. Voluntary motor performance is assessed using the UHDRS motor scale. Patients and their partners complete a questionnaire regarding functional disability.

Test [6] concerns patients with cervical dystonia (spasmodic torticollis). The test is described as follows: Double-blind placebo-controlled study in cervical dystonia (TWSTRS). It counts as in vivo, human. The conditions noted are these: 2.5 mg to 20 mg b.i.d.
Test [7] concerns schizophrenic inpatients on long-term stable antipsychotic treatment. The test is described as follows: Tardive dyskinesia study in schizophrenic inpatients (AIMS). The test is classed as in vivo, human. The note with it: add on to antipsychotic treatment, 2.5 to 20 mg b.i.d., versus placebo period. The method, then:
dyskinesia is a common adverse effect of long-term treatment with neuroleptics. A typical study to investigate the efficacy of the compounds according to the invention in tardive dyskinesia is described in the following. 32 schizophrenic (DSM-III-R) inpatients aged 25-60 years on long-term stable antipsychotic treatment (duration of at least 5 years) entered the study. […] The dose of blinded medication is titrated over a period of 3 weeks in a range from 2.5 to 20 mg b.i.d. Then the medication is maintained under double-blind conditions for 2 weeks. After a 2-week wash-out period, the test drugs are crossed over. Assessments of tardive dyskinesia by means of the Abnormal Involuntary Movement Scale (AIMS, see above) and of Parkinsonian extrapyramidal side effects (UPDRS, see above) are made pretreatment and posttreatment.

For `O=C1CC2(CCCC2)CC(=O)N1CCCCN1CCN(c2ncccn2)CC1` [buspirone], in test [1], the “anti-dyskinetic effect in Parkinson patients” value is listed as “moderate anti-dyskinetic properties”.
For the compound `Cl.Fc1ccc(-c2cncc(CNC[C@H]3CCc4ccccc4O3)c2)cc1` [(R)-(−)-2-[5-(4-fluorophenyl)-3-pyridylmethylaminomethyl]-chromane hydrochloride], the “mean dyskinesia scores after I-dopa challenge” value in test [2] was “significant clinical improvement”. The UPDRS scores entry in test [3] is on record as “significant clinical improvement”. The UPDRS result in test [4] is listed as “significant clinical improvement”. Moreover, the “involuntary motor performance (chorea)” value in test [5] (AIMS, UHDRS, video recordings) is “significant improvement”. Besides, in test [5] (UHDRS motor scale), the voluntary motor performance result was “significant improvement”. Besides, the TWSTRS scores result in test [6] was “significant improvement”. Besides, in test [7], the AIMS scores result is reported as “significantly lower than during placebo period”.
